Patent publication US8435562B2 (XenoPort, Inc., priority 2009, dated 2013)

Experiment: Powder X-ray diffraction analysis of anhydrous-to-hydrate form conversion (granules, tablets)
Assay type: physicochemical
Method: Anhydrous (2R)-2-phenylcarbonyloxypropyl (2S)-2-amino-3-(3,4-dihydroxyphenyl)propanoate mesylate (138.6 g) and hydroxypropylmethyl cellulose (1.4 g) (Methocer HPMC E4M, Dow Chemical) were weighed and sieved through an 18-mesh screen. The screened materials were placed into a high shear wet granulator (KG-5 high sheer blender, 5 L bowl, Key International) and pre-blended for 2 min. […] The material was blended for ca. 10-20 min at an impeller speed of 250 rpm and a chopper speed of 2,000 rpm, and a water spray rate of 2 g/min. After granulation the wet granules were milled through a 16-mesh screen with a brush. The milled wet granules were placed in a dryer (UniGlatt Fluid Bed Dryer, Glatt GmbH) and dried for 24 min at an inlet temperature of 65° C. with airflow adjusted at 8-10 SCFM. The dried granules were milled by manually pressing the granules through a screen.
Powder X-ray diffraction (PXRD) analysis was performed using a PANalytical X′Pert Pro X-ray diffractometer. The X-ray source was Cu kα1 with output voltage of 45 kV and current of 40 mA. The instrument employed para-focusing Bragg-Brentano geometry with incident divergence and scattering slits set at 1/16° and ⅛°, respectively. Soller slits with a 0.04-mm radius were used for both the incident and diffracted beams to remove axial divergence. Powder samples (9-12 mg) were gently pressed onto a single crystal silicon sample holder to form a smooth surface, and samples were spun at 8 sec/revolution throughout the data acquisition process. The samples were scanned from 2° to 40°(2θ°) with a step size of 0.017° (2θ angle) and a scan speed of 0.067°/sec. Data acquisition was controlled and analyzed with X′Pert Data Collector Software (version 2.2d) and X′Pert Data Viewer (version 1.2c), respectively.

## CS(=O)(=O)O.C[C@H](COC(=O)[C@@H](N)Cc1ccc(O)c(O)c1)OC(=O)c1ccccc1 [compound 1, (2R)-2-Phenylcarbonyloxypropyl (2S)-2-amino-3-(3,4-dihydroxyphenyl)propanoate mesylate]
With 1% sodium lauryl sulfate
  Crystal form by PXRD after high shear wet granulation: did not transform to the hydrate
Without sodium lauryl sulfate, 7 wt-% water
  Crystal form by PXRD after high shear wet granulation: a combination of the anhydrous and hydrated forms
Without sodium lauryl sulfate, 15 wt-% water
  Crystal form by PXRD after high shear wet granulation: predominantly crystalline (2R)-2-phenylcarbonyloxypropyl (2S)-2-amino-3-(3,4-dihydroxyphenyl)propanoate mesylate, hydrate
Without sodium lauryl sulfate, water content of 9 wt-% and 15 wt-% (FIG. 3 patterns B and C)
  Crystal form by PXRD after high shear wet granulation: characteristic of the hydrated form
